In ChEMBL document CHEMBL4680139, “Antiproliferative activity of diarylnaphthylpyrrolidine derivative via dual target inhibition” (Eur J Med Chem, 2020):
≈ marks a conversion by molar mass, not a printed value.

Columns and labels:
MCF7 [1] = assay: Antiproliferative activity against human MCF-7 cells assessed as proportion of live cells at 12.5 ug/ml measured after 3 weeks by crystal violet staining based soft agar colony formation assay (reference value: 100%); format: functional; conditions: dose 12.5 µg/ml
[2] = Toxicity in Swiss albino mouse assessed as RBC level in blood at 5 mg/kg, po administered as single dose (reference value: 10.56 +/- 1.22x10^6/mm3); format: organism-based; conditions: in vivo
[3] = Toxicity in Swiss albino mouse assessed as serum protein level at 50 mg/kg, po administered as single dose (reference value: 2.83 +/-0.09 mg/ml); format: organism-based; conditions: in vivo
[4] = Toxicity in Swiss albino mouse assessed as absolute and relative heart weight at 5 to 300 mg/kg, po administered as single dose; format: organism-based; conditions: in vivo, dose 5-300 mg/kg
HCT-116 = assay: Antiproliferative activity against human HCT-116 cells assessed as inhibition of cell growth measured after 48 hrs by SRB assay; format: functional, cell-based; conditions: HCT-116, 48 h
[5] = Toxicity in Swiss albino mouse assessed as albumin level in serum at 50 mg/kg, po administered as single dose (reference value: 0.56 +/-0.02 g/dl); format: organism-based; conditions: in vivo
MDA-MB-231 [6] = assay: Induction of apoptosis in human MDA-MB-231 cells at 10.42 uM by propidium iodide staining based flow cytometry (reference value: 2.6 +/- 0.28%); format: functional
[7] = Toxicity in Swiss albino mouse assessed as serum protein level at 5 mg/kg, po administered as single dose (reference value: 2.83 +/-0.09 mg/ml); format: organism-based; conditions: in vivo
MCF7 [8] = assay: Induction of apoptosis in human MCF-7 cells assessed as proportion of early apoptotic cells at 8.66 uM measured after 24 hrs by Annexin V- FITC/propidium iodide staining based flow cytometry (reference value: 0%); format: functional
[9] = Toxicity in Swiss albino mouse assessed as absolute and relative kidney weight at 5 to 300 mg/kg, po administered as single dose; format: organism-based; conditions: in vivo, dose 5-300 mg/kg
MCF7 [10] = assay: Antiproliferative activity against human MCF-7 cells assessed as proportion of live cells at 6.25 ug/ml measured after 3 weeks by crystal violet staining based soft agar colony formation assay (reference value: 100%); format: functional; conditions: dose 6.25 µg/ml
MCF7 [11] = assay: Induction of apoptosis in human MCF-7 cells assessed as proportion of necrotic cells at 4.33 uM measured after 24 hrs by Annexin V- FITC/propidium iodide staining based flow cytometry (reference value: 5.3%); format: functional
MDA-MB-231 [12] = assay: Induction of cell cycle arrest in human MDA-MB-231 cells assessed as accumulation at S phase at 10.42 uM by propidium iodide staining based flow cytometry (reference value: 11.35 +/- 0.07%); format: functional
[13] = Toxicity in Swiss albino mouse assessed as total bilirubin level in serum at 300 mg/kg, po administered as single dose (reference value: 0.62 +/-0.05 mg/dl); format: organism-based; conditions: in vivo
MDA-MB-231 [14] = assay: Induction of apoptosis in human MDA-MB-231 cells assessed as proportion of viable cells at 5.21 uM measured after 24 hrs by Annexin V-FITC/propidium iodide staining based flow cytometry (reference value: 99%); format: functional
MDA-MB-231 [15] = assay: Induction of apoptosis in human MDA-MB-231 cells assessed as proportion of late apoptotic cells at 5.21 uM measured after 24 hrs by Annexin V-FITC/propidium iodide staining based flow cytometry (reference value: 0.5%); format: functional
[16] = Toxicity in Swiss albino mouse assessed as cholesterol level in serum at 300 mg/kg, po administered as single dose (reference value: 103.62 +/-7.45 mg/dl); format: organism-based; conditions: in vivo
[17] = Toxicity in Swiss albino mouse assessed as RBC level in blood at 300 mg/kg, po administered as single dose (reference value: 10.56 +/- 1.22x10^6/mm3); format: organism-based; conditions: in vivo
[18] = Toxicity in Swiss albino mouse assessed as SGPT level in serum at 50 mg/kg, po administered as single dose (reference value: 21.81 +/-2.1 U/L); format: organism-based; conditions: in vivo
MDA-MB-231 [19] = assay: Induction of apoptosis in human MDA-MB-231 cells assessed as proportion of necrotic cells at 10.42 uM measured after 24 hrs by Annexin V-FITC/propidium iodide staining based flow cytometry (reference value: 0.2%); format: functional
MCF7 [20] = assay: Induction of cell cycle arrest in human MCF-7 cells assessed as accumulation at S phase at 2.17 uM by propidium iodide staining based flow cytometry (reference value: 6.9%); format: functional
MCF7 [21] = assay: Induction of apoptosis in human MCF-7 cells assessed as proportion of necrotic cells at 8.66 uM measured after 24 hrs by Annexin V- FITC/propidium iodide staining based flow cytometry (reference value: 5.3%); format: functional
[22] = Toxicity in Swiss albino mouse assessed as haemoglobin level in blood at 300 mg/kg, po administered as single dose (reference value: 12.05 +/-0.88 gm/dl); format: organism-based; conditions: in vivo
[23] = Toxicity in Swiss albino mouse assessed as WBC level in blood at 5 mg/kg, po administered as single dose (reference value: 17.06 +/- 1.33x10^3/mm3); format: organism-based; conditions: in vivo
[24] = Toxicity in Swiss albino mouse assessed as ALP level in serum at 300 mg/kg, po administered as single dose (reference value: 195.8 +/-12.06 U/L); format: organism-based; conditions: in vivo
MDA-MB-231 [25] = assay: Induction of cell cycle arrest in human MDA-MB-231 cells assessed as accumulation at S phase at 2.6 uM by propidium iodide staining based flow cytometry (reference value: 11.35 +/- 0.07%); format: functional
MCF7 [26] = assay: Antiproliferative activity against human MCF-7 cells assessed as proportion of dead cells at 50 ug/ml measured after 3 weeks by crystal violet staining based soft agar colony formation assay; format: functional; conditions: dose 50 µg/ml
[27] = Toxicity in Swiss albino mouse assessed as body weight at 5 mg/kg, po administered as single dose (reference value: 31.62 +/- 1.64 gms); format: organism-based; conditions: in vivo
MDA-MB-231 [28] = assay: Induction of apoptosis in human MDA-MB-231 cells at 5.21 uM by propidium iodide staining based flow cytometry (reference value: 2.6 +/- 0.28%); format: functional
MDA-MB-231 [29] = assay: Induction of cell cycle arrest in human MDA-MB-231 cells assessed as accumulation at G2/M phase at 2.6 uM by propidium iodide staining based flow cytometry (reference value: 8.35 +/-0.07%); format: functional
MCF7 [30] = assay: Antiproliferative activity against human MCF-7 cells assessed as inhibition of colony formation measured after 3 weeks by crystal violet staining based soft agar colony formation assay; format: functional, cell-based
MDA-MB-231 [31] = assay: Induction of cell cycle arrest in human MDA-MB-231 cells assessed as accumulation at G0/G1 phase at 10.42 uM by propidium iodide staining based flow cytometry (reference value: 77.7 +/- 0.28%); format: functional
MDA-MB-231 [32] = assay: Induction of cell cycle arrest in human MDA-MB-231 cells assessed as accumulation at G2/M phase at 10.42 uM by propidium iodide staining based flow cytometry (reference value: 8.35 +/-0.07%); format: functional
[33] = Toxicity in Swiss albino mouse assessed as creatinine level in serum at 5 mg/kg, po administered as single dose (reference value: 0.27+/-0.02 mg/dl); format: organism-based; conditions: in vivo

COc1ccc(C(c2ccccc2OCCN2CCCC2)c2cccc3ccccc23)c(OC)c1OC (stereo not given)
Activity (MCF7 [1]): 47.2% | Activity [2]: 13.06 million/mm3 | Activity [3]: 2.52 mg/mL | Activity [4]: Non-Toxic | IC50 (HCT-116): 2.03 µM | Activity [5]: 0.57 g/dL | Activity (MDA-MB-231 [6]): 16.7% | Activity [7]: 2.27 mg/mL | Activity (MCF7 [8]): 0% | Activity [9]: Non-Toxic | Activity (MCF7 [10]): 70.77% | Activity (MCF7 [11]): 10.5% | Activity (MDA-MB-231 [12]): 11.35% | Activity [13]: 1.01 mg/dL | Activity (MDA-MB-231 [14]): 91.4% | Activity (MDA-MB-231 [15]): 3.5% | Activity [16]: 120.54 mg/dL | Activity [17]: 11.64 million/mm3 | Activity [18]: 19.12 U/L | Activity (MDA-MB-231 [19]): 14.7% | Activity (MCF7 [20]): 10.9% | Activity (MCF7 [21]): 12.1% | Activity [22]: 10.13 g/dL | Activity [23]: 11.11 10^3/mm3 | Activity [24]: 137.7 U/L | Activity (MDA-MB-231 [25]): 6.75% | Activity (MCF7 [26]): 87.02% | Activity [27]: 30.58 g | Activity (MDA-MB-231 [28]): 2.8% | Activity (MDA-MB-231 [29]): 10.35% | inhibition (MCF7 [30]): Dose-dependent effect | IC50 (MCF7 [30]; MCF7, 504 h): 11.2 mg/L (≈ 22.6 µM) | Activity (MDA-MB-231 [31]): 56.9% | Activity (MDA-MB-231 [32]): 15.05% | Activity [33]: 0.22 mg/dL
